According to the kinase profiling compilation of Christmann-Franck et al. (2016):

The compounds below were run against RPS6KA5 KD2 (human) (UniProt O75582) (assay: radiometric filter-binding kinase assay, Kinase HotSpot). Settings: compound 0.5 µM; ATP 10 µM.

Going from `Cc1ccc(NC(=O)c2ccc(CN3CCN(C)CC3)cc2)cc1Nc1nc(-c2cccnc2)cs1` to `O=C1Nc2ccccc2/C1=C\c1c(Cl)[nH]c2ccccc12`, the residual activity falls from 103% to 85.5%.

What follows are compounds tested against RPS6KB2 (human) (UniProt Q9UBS0) in the same assay as above. Settings: compound 0.5 µM; ATP 10 µM.
Chain of RPS6KB2 (human) (Q9UBS0 whole entry, looked up): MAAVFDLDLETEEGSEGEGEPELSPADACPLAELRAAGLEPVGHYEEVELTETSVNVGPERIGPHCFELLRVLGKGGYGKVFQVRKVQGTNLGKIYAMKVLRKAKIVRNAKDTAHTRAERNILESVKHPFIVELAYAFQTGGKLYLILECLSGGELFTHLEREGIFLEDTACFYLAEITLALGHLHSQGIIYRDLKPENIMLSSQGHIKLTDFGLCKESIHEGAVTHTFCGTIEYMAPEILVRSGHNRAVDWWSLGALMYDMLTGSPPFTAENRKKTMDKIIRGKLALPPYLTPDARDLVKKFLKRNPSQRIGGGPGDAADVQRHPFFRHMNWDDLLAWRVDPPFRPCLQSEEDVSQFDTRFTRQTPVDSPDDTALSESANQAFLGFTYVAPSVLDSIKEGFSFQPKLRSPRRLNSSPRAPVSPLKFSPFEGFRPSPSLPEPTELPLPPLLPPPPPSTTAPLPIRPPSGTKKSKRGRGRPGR

Going from `O=C(Nc1ccc(Cl)cc1)c1ccccc1NCc1ccncc1` to `Cc1ccc(NC(=O)c2ccc(CN3CCN(C)CC3)cc2)cc1Nc1nc(-c2cccnc2)cs1`, the residual activity falls from 105% to 101%.

First: O=C1Cc2c([nH]c3ccc([N+](=O)[O-])cc23)-c2ccccc2N1
Second: O=C1Nc2ccccc2/C1=C\c1c(Cl)[nH]c2ccccc12
The residual activity of the first is lower: 96.5% for the first, 99.4% for the second.

The compounds below were run against SRPK2 (human) (UniProt P78362) in the same assay as above. Settings: compound 0.5 µM; ATP 10 µM.
Chain of SRPK2 (human) (P78362 whole entry, looked up): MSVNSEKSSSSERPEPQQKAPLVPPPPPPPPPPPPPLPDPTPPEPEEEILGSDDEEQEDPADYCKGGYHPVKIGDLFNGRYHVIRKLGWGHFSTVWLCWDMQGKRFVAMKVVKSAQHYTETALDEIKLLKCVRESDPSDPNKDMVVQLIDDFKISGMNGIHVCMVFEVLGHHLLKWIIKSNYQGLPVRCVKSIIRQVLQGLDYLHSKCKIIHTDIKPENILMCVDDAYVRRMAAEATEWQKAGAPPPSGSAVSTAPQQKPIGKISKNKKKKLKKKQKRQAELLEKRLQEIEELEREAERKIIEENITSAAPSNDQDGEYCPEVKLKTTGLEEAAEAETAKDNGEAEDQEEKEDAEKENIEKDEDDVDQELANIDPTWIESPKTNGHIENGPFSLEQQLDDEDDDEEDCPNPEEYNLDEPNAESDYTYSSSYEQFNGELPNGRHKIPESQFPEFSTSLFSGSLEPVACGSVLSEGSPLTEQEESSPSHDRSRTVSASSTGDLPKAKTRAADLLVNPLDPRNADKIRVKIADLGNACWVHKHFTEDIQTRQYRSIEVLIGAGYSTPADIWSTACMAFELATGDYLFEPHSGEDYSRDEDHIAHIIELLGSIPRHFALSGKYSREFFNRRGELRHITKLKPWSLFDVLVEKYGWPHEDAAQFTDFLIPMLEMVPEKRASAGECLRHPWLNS

Going from `O=C(Nc1ccc(Cl)cc1)c1ccccc1NCc1ccncc1` to `Cc1ccc(NC(=O)c2ccc(CN3CCN(C)CC3)cc2)cc1Nc1nc(-c2cccnc2)cs1`, the residual activity rises from 85.1% to 101%.

Compared with `O=C1Cc2c([nH]c3ccc([N+](=O)[O-])cc23)-c2ccccc2N1`, `O=C1Nc2ccccc2/C1=C\c1c(Cl)[nH]c2ccccc12` is lower in residual activity: 109% for the first, 94.4% for the second.

Each compound was assayed against SRPK3 (human) (UniProt Q9UPE1) in the same assay as above. Settings: compound 0.5 µM; ATP 10 µM.
Chain of SRPK3 (human) (Q9UPE1 whole entry, looked up): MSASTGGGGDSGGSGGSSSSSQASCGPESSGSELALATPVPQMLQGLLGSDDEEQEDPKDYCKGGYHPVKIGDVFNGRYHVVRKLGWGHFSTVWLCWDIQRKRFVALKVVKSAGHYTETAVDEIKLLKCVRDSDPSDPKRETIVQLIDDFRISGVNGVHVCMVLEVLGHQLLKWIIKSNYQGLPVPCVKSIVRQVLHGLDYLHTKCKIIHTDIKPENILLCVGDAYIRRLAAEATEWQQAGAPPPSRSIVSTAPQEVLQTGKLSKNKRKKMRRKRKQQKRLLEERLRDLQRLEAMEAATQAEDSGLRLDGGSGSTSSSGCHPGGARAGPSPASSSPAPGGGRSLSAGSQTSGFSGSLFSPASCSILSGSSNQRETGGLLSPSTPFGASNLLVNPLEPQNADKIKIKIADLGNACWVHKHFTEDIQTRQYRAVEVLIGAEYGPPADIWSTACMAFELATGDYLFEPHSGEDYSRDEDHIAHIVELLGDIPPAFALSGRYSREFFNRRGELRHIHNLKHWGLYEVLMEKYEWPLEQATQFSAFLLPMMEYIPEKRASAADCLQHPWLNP

Going from `O=C(Nc1ccc(Cl)cc1)c1ccccc1NCc1ccncc1` to `Cc1ccc(NC(=O)c2ccc(CN3CCN(C)CC3)cc2)cc1Nc1nc(-c2cccnc2)cs1`, the residual activity rises from 100% to 102%.

First: O=C1Cc2c([nH]c3ccc([N+](=O)[O-])cc23)-c2ccccc2N1
Second: O=C1Nc2ccccc2/C1=C\c1c(Cl)[nH]c2ccccc12
The residual activity of the first is lower: 92.7% for the first, 97.1% for the second.

Each compound was assayed against STK10 (human) (UniProt O94804) in the same assay as above. Settings: compound 0.5 µM; ATP 10 µM.

First: O=C(Nc1ccc(Cl)cc1)c1ccccc1NCc1ccncc1
Second: Cc1ccc(NC(=O)c2ccc(CN3CCN(C)CC3)cc2)cc1Nc1nc(-c2cccnc2)cs1
The residual activity of the first is lower: 81.8% for the first, 93.8% for the second.

Compared with `O=C1Cc2c([nH]c3ccc([N+](=O)[O-])cc23)-c2ccccc2N1`, `O=C1Nc2ccccc2/C1=C\c1c(Cl)[nH]c2ccccc12` is higher in residual activity: 80.4% for the first, 90.9% for the second.

These compounds were tested against STK11 (human) (UniProt Q15831) in the same assay as above. Settings: compound 0.5 µM; ATP 10 µM.
Chain of STK11 (human) (Q15831 whole entry, looked up): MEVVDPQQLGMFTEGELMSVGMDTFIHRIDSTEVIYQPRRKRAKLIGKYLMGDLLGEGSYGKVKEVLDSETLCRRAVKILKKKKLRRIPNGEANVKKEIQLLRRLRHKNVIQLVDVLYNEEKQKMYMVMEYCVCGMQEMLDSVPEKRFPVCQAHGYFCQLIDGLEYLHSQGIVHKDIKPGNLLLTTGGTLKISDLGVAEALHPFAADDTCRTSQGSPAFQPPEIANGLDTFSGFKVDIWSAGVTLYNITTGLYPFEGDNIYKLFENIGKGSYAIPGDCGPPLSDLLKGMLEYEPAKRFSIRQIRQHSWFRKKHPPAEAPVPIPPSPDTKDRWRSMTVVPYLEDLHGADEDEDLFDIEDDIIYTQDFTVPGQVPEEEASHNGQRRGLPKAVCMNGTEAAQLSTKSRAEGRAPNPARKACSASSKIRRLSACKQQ

First: O=C(Nc1ccc(Cl)cc1)c1ccccc1NCc1ccncc1
Second: Cc1ccc(NC(=O)c2ccc(CN3CCN(C)CC3)cc2)cc1Nc1nc(-c2cccnc2)cs1
The residual activity of the first is lower: 93.5% for the first, 102% for the second.

Compared with `O=C1Cc2c([nH]c3ccc([N+](=O)[O-])cc23)-c2ccccc2N1`, `O=C1Nc2ccccc2/C1=C\c1c(Cl)[nH]c2ccccc12` is lower in residual activity: 90.2% for the first, 83.4% for the second.

Each compound was assayed against STK17A (human) (UniProt Q9UEE5) in the same assay as above. Settings: compound 0.5 µM; ATP 10 µM.
Chain of STK17A (human) (Q9UEE5 whole entry, looked up): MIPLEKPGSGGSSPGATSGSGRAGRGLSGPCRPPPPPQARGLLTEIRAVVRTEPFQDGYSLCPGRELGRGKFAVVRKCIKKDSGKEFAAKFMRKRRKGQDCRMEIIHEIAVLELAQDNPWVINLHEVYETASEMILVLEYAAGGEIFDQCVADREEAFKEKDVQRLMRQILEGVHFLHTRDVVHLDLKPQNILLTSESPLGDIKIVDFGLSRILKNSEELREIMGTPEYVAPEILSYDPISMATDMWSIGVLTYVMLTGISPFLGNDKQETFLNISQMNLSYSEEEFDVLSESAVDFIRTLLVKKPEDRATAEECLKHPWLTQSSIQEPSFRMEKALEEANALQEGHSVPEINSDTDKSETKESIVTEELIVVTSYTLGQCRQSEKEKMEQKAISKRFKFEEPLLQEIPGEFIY

Going from `O=C(Nc1ccc(Cl)cc1)c1ccccc1NCc1ccncc1` to `Cc1ccc(NC(=O)c2ccc(CN3CCN(C)CC3)cc2)cc1Nc1nc(-c2cccnc2)cs1`, the residual activity rises from 94.7% to 104%.

Compared with `O=C1Cc2c([nH]c3ccc([N+](=O)[O-])cc23)-c2ccccc2N1`, `O=C1Nc2ccccc2/C1=C\c1c(Cl)[nH]c2ccccc12` is higher in residual activity: 46.4% for the first, 95.2% for the second.

What follows are compounds tested against TAOK1 (human) (UniProt Q7L7X3) in the same assay as above. Settings: compound 0.5 µM; ATP 10 µM.
Chain of TAOK1 (human) (Q7L7X3 whole entry, looked up): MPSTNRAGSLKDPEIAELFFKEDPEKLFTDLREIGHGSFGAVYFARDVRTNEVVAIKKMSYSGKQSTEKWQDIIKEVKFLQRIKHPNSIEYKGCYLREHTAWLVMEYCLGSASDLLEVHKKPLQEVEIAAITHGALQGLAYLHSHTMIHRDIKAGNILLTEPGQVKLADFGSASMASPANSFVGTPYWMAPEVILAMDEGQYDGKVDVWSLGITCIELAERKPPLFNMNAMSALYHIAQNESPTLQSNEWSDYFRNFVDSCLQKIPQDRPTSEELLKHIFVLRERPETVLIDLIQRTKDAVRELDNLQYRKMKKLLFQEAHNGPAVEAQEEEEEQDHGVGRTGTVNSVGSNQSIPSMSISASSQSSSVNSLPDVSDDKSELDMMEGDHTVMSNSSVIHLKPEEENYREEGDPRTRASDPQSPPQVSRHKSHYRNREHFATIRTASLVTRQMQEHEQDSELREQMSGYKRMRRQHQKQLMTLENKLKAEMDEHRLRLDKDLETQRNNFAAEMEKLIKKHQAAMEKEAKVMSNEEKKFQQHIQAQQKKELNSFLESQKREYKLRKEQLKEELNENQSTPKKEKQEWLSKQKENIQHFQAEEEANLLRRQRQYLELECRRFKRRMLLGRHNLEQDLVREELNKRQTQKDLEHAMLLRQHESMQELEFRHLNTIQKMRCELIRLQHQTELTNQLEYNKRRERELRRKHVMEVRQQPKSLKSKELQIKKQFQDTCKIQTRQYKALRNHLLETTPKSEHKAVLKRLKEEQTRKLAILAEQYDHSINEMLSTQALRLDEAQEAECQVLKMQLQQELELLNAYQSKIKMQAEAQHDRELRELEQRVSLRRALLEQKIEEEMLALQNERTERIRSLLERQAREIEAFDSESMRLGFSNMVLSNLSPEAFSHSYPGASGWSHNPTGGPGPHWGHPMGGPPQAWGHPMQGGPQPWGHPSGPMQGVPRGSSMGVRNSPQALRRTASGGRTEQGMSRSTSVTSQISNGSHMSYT

Going from `O=C(Nc1ccc(Cl)cc1)c1ccccc1NCc1ccncc1` to `Cc1ccc(NC(=O)c2ccc(CN3CCN(C)CC3)cc2)cc1Nc1nc(-c2cccnc2)cs1`, the residual activity falls from 110% to 98.5%.

First: O=C1Cc2c([nH]c3ccc([N+](=O)[O-])cc23)-c2ccccc2N1
Second: O=C1Nc2ccccc2/C1=C\c1c(Cl)[nH]c2ccccc12
The residual activity of the first is lower: 66.9% for the first, 100% for the second.

These compounds were tested against TAOK2 (human) (UniProt Q9UL54) in the same assay as above. Settings: compound 0.5 µM; ATP 10 µM.

Compared with `O=C(Nc1ccc(Cl)cc1)c1ccccc1NCc1ccncc1`, `Cc1ccc(NC(=O)c2ccc(CN3CCN(C)CC3)cc2)cc1Nc1nc(-c2cccnc2)cs1` is lower in residual activity: 102% for the first, 91.6% for the second.

Going from `O=C1Cc2c([nH]c3ccc([N+](=O)[O-])cc23)-c2ccccc2N1` to `O=C1Nc2ccccc2/C1=C\c1c(Cl)[nH]c2ccccc12`, the residual activity rises from 88.9% to 104%.

These compounds were tested against VRK1 (human) (UniProt Q99986) in the same assay as above. Settings: compound 0.5 µM; ATP 10 µM.
Chain of VRK1 (human) (Q99986 whole entry, looked up): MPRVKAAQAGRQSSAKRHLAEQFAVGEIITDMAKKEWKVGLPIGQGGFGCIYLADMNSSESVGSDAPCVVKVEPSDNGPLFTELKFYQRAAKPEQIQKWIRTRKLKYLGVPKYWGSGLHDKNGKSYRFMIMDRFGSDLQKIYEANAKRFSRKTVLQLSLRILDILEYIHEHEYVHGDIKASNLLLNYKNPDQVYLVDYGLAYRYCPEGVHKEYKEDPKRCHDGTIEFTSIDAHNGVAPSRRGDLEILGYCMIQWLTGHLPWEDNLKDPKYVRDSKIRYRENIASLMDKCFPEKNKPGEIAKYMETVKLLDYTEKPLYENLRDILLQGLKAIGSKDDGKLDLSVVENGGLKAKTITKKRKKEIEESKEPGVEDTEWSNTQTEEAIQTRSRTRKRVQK

Going from `O=C(Nc1ccc(Cl)cc1)c1ccccc1NCc1ccncc1` to `Cc1ccc(NC(=O)c2ccc(CN3CCN(C)CC3)cc2)cc1Nc1nc(-c2cccnc2)cs1`, the residual activity falls from 104% to 97.4%.

Compared with `O=C1Cc2c([nH]c3ccc([N+](=O)[O-])cc23)-c2ccccc2N1`, `O=C1Nc2ccccc2/C1=C\c1c(Cl)[nH]c2ccccc12` is higher in residual activity: 90.8% for the first, 104% for the second.

Each compound was assayed against ZAP70 (human) (UniProt P43403) in the same assay as above. Settings: compound 0.5 µM; ATP 10 µM.
Chain of ZAP70 (human) (P43403 whole entry, looked up): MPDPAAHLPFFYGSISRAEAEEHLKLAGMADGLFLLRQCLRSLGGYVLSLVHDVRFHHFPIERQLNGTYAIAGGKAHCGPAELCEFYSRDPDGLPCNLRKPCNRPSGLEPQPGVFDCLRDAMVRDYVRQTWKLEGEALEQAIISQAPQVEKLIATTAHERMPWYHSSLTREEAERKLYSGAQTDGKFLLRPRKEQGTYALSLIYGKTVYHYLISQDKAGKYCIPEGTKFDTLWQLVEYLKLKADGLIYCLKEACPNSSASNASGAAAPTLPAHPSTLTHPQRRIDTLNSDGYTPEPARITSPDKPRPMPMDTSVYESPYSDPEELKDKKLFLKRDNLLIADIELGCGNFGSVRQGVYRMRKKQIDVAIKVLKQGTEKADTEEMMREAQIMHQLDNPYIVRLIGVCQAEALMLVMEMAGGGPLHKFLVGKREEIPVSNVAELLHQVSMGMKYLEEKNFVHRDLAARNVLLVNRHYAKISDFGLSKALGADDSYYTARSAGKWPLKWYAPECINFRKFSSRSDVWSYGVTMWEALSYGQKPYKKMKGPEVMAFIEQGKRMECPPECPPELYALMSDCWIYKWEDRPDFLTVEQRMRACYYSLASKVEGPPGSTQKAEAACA

First: O=C(Nc1ccc(Cl)cc1)c1ccccc1NCc1ccncc1
Second: Cc1ccc(NC(=O)c2ccc(CN3CCN(C)CC3)cc2)cc1Nc1nc(-c2cccnc2)cs1
The residual activity of the first is lower: 103% for the first, 112% for the second.

Going from `O=C1Cc2c([nH]c3ccc([N+](=O)[O-])cc23)-c2ccccc2N1` to `O=C1Nc2ccccc2/C1=C\c1c(Cl)[nH]c2ccccc12`, the residual activity rises from 91.4% to 106%.
